According to PMC4632126, “High specific selectivity and Membrane-Active Mechanism of the synthetic centrosymmetric α-helical peptides with Gly-Gly pairs” (Scientific Reports, 2015):
Where no end group is shown, it is not given here.

Columns and labels:
[1] = system: E. coli ATCC 25922; format: cell-based, Escherichia coli; details: ATCC 25922, 5 h
Procedure: (§1) Minimal bactericidal concentrations (MBCs) were measured using the method which has been adopted from National Committee for Clinical Laboratory Standards (NCCLS), with modifications. In short, 50 μL peptide solutions were pipetted into microtiter plates at various concentrations ranging from 1 to 128 μM. Freshly grown bacteria were added to the each well in a density of 0.5–1 × 10^6 CFUmL^−1. Microtiter plated was incubated at 37 °C for 5 h. Fifty microliters of each incubation mixture was further serially diluted (up to 10^−3 of the initial bacterial concentration), transferred on agar plates and incubated overnight. On the following day, the number of colonies was evaluated and the initial CFU/well retrospectively calculated. The minimum bactericidal concentrations (μM) were determined as the lowest concentration of the peptides that prevented more than 99.9% bacteria growth.

[2] = system: E. coli UB1005; format: cell-based, Escherichia coli; details: UB1005, 5 h
Procedure: as §1

[3] = system: S. typhimurium ATCC14028; format: cell-based, Salmonella typhimurium; details: ATCC14028, 5 h
Procedure: as §1

[4] = system: S. aureus ATCC29213; format: cell-based, Staphylococcus aureus; details: ATCC 29213, 5 h
Procedure: as §1

[5] = system: Methicillin-resistant S. aureus ATCC 43300; details: S. aureus 43300 (methicillin-resistant); lowest concentration preventing more than 99.9% growth; 37 °C, 5 h; representative of three trials
Procedure: as §1, with “In” for “Minimal bactericidal concentrations (MBCs) were measured using the method which has been adopted from National Committee for Clinical Laboratory Standards (NCCLS), with modifications. In”

[6] = system: S. epidermidis ATCC12228; format: cell-based, Staphylococcus epidermidis; details: ATCC12228, 5 h
Procedure: In short, 50 μL peptide solutions were pipetted into microtiter plates at various concentrations ranging from 1 to 128 μM. Freshly grown bacteria were added to the each well in a density of 0.5–1 × 10^6 CFUmL^−1. Microtiter plated was incubated at 37 °C for 5 h. Fifty microliters of each incubation mixture was further serially diluted (up to 10^−3 of the initial bacterial concentration), transferred on agar plates and incubated overnight. On the following day, the number of colonies was evaluated and the initial CFU/well retrospectively calculated. The minimum bactericidal concentrations (μM) were determined as the lowest concentration of the peptides that prevented more than 99.9% bacteria growth. Each test was reproduced at least 3 times using 6 replicates.

[7] = system: 3 gram-negative strains tested; assay: Geometric mean of MBCs and therapeutic index, gram-negative strains; format: cell-based; details: MHC/GM for 3 gram-negative strains; >128 counted as 256 μM
Procedure: as §1, with “In” for “Minimal bactericidal concentrations (MBCs) were measured using the method which has been adopted from National Committee for Clinical Laboratory Standards (NCCLS), with modifications. In”
(§2) The therapeutic index (TI) is calculated by the ration of the minimum hemolytic concentration (MHC) to the geometric mean of the MBC (GM) to evaluate cell selectivity of peptides.

[8] = system: 3 gram-positive strains tested; details: MHC/GM for 3 gram-positive strains; >128 counted as 256 μM
Procedure: as §1, with “In” for “Minimal bactericidal concentrations (MBCs) were measured using the method which has been adopted from National Committee for Clinical Laboratory Standards (NCCLS), with modifications. In”
as §2

[9] = system: all of the 6 strains tested; assay: Geometric mean of MBCs and therapeutic index, all strains; format: cell-based; details: MHC/GM for all 6 strains; >128 counted as 256 μM
Procedure: as §1, with “In” for “Minimal bactericidal concentrations (MBCs) were measured using the method which has been adopted from National Committee for Clinical Laboratory Standards (NCCLS), with modifications. In”
as §2

[10] = system: human red blood cells (hRBCs); assay: Hemolytic activity; details: concentration causing 5% hemolysis of human red blood cells; about 1% hRBC in PBS, 37 °C, 1 h, OD 576 nm
Procedure: The hemolytic activity of each peptide was evaluated using a modified method, as described previously[21][22]. […] Then, the collected hRBCs were washed three times with PBS (pH 7.2), centrifuged at 1000 × g for 5 min, and resuspended in PBS (final concentration, approximately 1%). Next, 50 μL of the hRBC suspension was placed into a 96-well cell culture plate with 50 μL of test peptide solution in PBS at different concentrations, and the mixture was incubated at 37 °C for 1 h. After incubation, the plate was centrifuged at 1000 × g for 5 min, the supernatant was transferred to a new 96-well cell culture plate, and the release of hemoglobin was measured by monitoring optical density (OD) at 576 nm. Untreated hRBCs suspension was used as a negative control, and the hRBCs treated with 0.1% Triton X-100 were employed as positive controls. Each test was reproduced at least 3 times using 6 replicates. Percent hemolysis was calculated using the following equation:

[11] = system: E. coli ATCC 25922; format: cell-based, Escherichia coli; details: ATCC 25922, 5 h; remark: listed apart in the source
Procedure: as §1, with “In short, 50 μL peptide solutions were pipetted into microtiter plates at various concentrations ranging from 1 to 128 μM.” left out, “growth. […] The salt sensitivity of the peptides was measured using a modified method, as described previously. […] The subsequent steps were consistent with the MBCs determination method.” for “growth.”

[12] = system: S. aureus ATCC 29213; format: cell-based, Staphylococcus aureus; details: ATCC 29213, 5 h
Procedure: as §1, with “In short, 50 μL peptide solutions were pipetted into microtiter plates at various concentrations ranging from 1 to 128 μM.” left out, “growth. […] The salt sensitivity of the peptides was measured using a modified method, as described previously. […] The subsequent steps were consistent with the MBCs determination method.” for “growth.”

[13] = system: E. coli ATCC 25922; format: cell-based, Escherichia coli; details: ATCC 25922, 24 h
Procedure: The checkerboard titration method is commonly used to evaluate the synergy of different antibacterial combinations. First, 2-fold serial dilutions of the antibiotics and antimicrobial peptides were prepared. Subsequently, 50 μL each of different concentrations of antibiotics and of antimicrobial peptides was mixed and added into 100 μL of bacterial solution (containing approximately 0.5–1 × 10^6 CFU mL^−1) in each well of a 96-well plate. The plates were then incubated at 37 °C for 24 h. The subsequent steps were consistent with the MBCs determination method. The fractional inhibitory concentration (FIC) index (FICI) was calculated as follows: An FICI < 0.5 is considered to indicate synergy; 0.5 < FICI < 1.0 is considered additive; 1.0 < FICI < 4.0 is considered indifferent; and an FICI > 4.0 is considered antagonism.

Substance	Minimum bactericidal concentration [1] [µM]	Minimum bactericidal concentration [2] [µM]	Minimum bactericidal concentration [3] [µM]	Minimum bactericidal concentration [4] [µM]	Minimum bactericidal concentration [5] [µM]	Minimum bactericidal concentration [6] [µM]	TI (therapeutic index), gram-negative [7]	TI (therapeutic index), gram-positive [8]	TI (therapeutic index), all strains [9]	MHC (minimum hemolytic concentration) [10] [µM]	MBC with CaCl2 [11] [µM]	MBC with FeCl3 [11] [µM]	MBC with KCl [11] [µM]	MBC with MgCl2 [11] [µM]	MBC with NH4Cl [11] [µM]	MBC with NaCl [11] [µM]	MBC with ZnCl2 [11] [µM]	MBC, control [11] [µM]	MBC with CaCl2 [12] [µM]	MBC with FeCl3 [12] [µM]	also measured
GLWKGKLGLWKGKLGLWKGKL-NH2 [GG3s2]	4	4	32	128	64	64	32	3.17	10.08	>128											
GKLWLKGGKLWLKGGKLWLKGGKLWLKG-NH2 [GG4]	4	8	32	128	128	>128	1.59	0.10	0.40	16	4	4	4	4	4	4	4	4			
AKLWALKAKLWALKAKLWALK-NH2 [AA3s1]	2	4	16	16	16	64	3.17	0.63	1.41	16											
GKLWLKGGKLWLKGGKLWLKG-NH2 [GG3]	2	2	4	16	32	32	101.59	10.08	32	>128	2	1	2	2	2	2	2	2	16	16	MBC with KCl [12]: 8 µM; MBC with MgCl2 [12]: 16 µM; MBC with NH4Cl [12]: 16 µM; MBC with NaCl [12]: 16 µM; MBC with ZnCl2 [12]: 16 µM; MBC, control [12]: 16 µM; FIC index in combination with Ceftazidime [13]: 0.75; FIC index in combination with Chloramphenicol [13]: 1; FIC index in combination with Ciprofloxacin [13]: 1; FIC index in combination with Streptomycin [13]: 0.5
GKLWLKGGKLWLKG-NH2 [GG2]	4	32	64	128	64	128	12.70	2.52	5.66	>128	16	4	4	16	4	>128	4	4	>128	128	MBC with KCl [12]: 128 µM; MBC with MgCl2 [12]: >128 µM; MBC with NH4Cl [12]: 128 µM; MBC with NaCl [12]: >128 µM; MBC with ZnCl2 [12]: 128 µM; MBC, control [12]: 128 µM; FIC index in combination with Ceftazidime [13]: 2; FIC index in combination with Chloramphenicol [13]: 1; FIC index in combination with Ciprofloxacin [13]: 2; FIC index in combination with Streptomycin [13]: 1
AKLWLKAAKLWLKA-NH2 [AA2]	1	8	16	16	16	32	25.40	6.35	12.70	128	4	1	1	2	1	2	1	1	64	16	MBC with KCl [12]: 16 µM; MBC with MgCl2 [12]: 32 µM; MBC with NH4Cl [12]: 8 µM; MBC with NaCl [12]: 128 µM; MBC with ZnCl2 [12]: 8 µM; MBC, control [12]: 16 µM; FIC index in combination with Ceftazidime [13]: 1; FIC index in combination with Chloramphenicol [13]: 1; FIC index in combination with Ciprofloxacin [13]: 0.75; FIC index in combination with Streptomycin [13]: 0.5
AKLWLKAAKLWLKAAKLWLKAAKLWLKA-NH2 [AA4]	8	32	128	32	32	32	0.03	0.03	0.03	1	8	8	4	8	8	64	4	8	128	32	MBC with KCl [12]: 32 µM; MBC with MgCl2 [12]: 32 µM; MBC with NH4Cl [12]: 32 µM; MBC with NaCl [12]: 32 µM; MBC with ZnCl2 [12]: 32 µM; MBC, control [12]: 32 µM
